Reference: US10407734B2, “Compositions and methods of using transposons” (Yale University, priority 2013, dated 2019)
Entries after “also recorded” stand apart in the source; their conditions may differ.

Assays:
AML-RAS cells [1] = experiment: AlamarBlue cell viability assay on AML-RAS cells; type: cell-based, human; details: 3 days after treatment; 20 mM LiCl, 5 uM Kenpaullone or 2 uM BIO
Description: (§1) Cell Viability Assay. To determine the effects of various drug treatments on oncogenic RAS mutant cells, an AlamarBlue assay (Invitrogen) was performed. 2500 cells were seeded in triplicate in 96-well plates one day prior to drug treatments. For TRI-102 and AML-RAS cells, fluorescence was measured at 72 hrs after drug addition. For other oncogenic RAS cells, fluorescence was measured 120 hrs after drug addition.
as §1, with “cells,” for “cells, an”

[2] = system: patient-derived cancer cells with oncogenic RAS mutations (lung, colon, pancreatic, melanocytic); experiment: AlamarBlue cell viability assay on panel of 17 patient-derived oncogenic RAS cancer cells; type: cell-based, human; details: panel of 17 lines; viable cells vs vehicle after 5 days
Description: as §1
as §1, with “cells,” for “cells, an”

A549 lung cancer cells = experiment: AlamarBlue cell viability assay on A549 cells; type: cell-based, human; details: viable cells vs vehicle after 5 days; SMARCA4 frame shift deletion
Description: as §1
as §1, with “cells,” for “cells, an”

AML-RAS cells [3] = experiment: Soft agar assay on AML-RAS cells; type: cell-based, human; details: 20 mM LiCl; colonies counted after 3-4 weeks
Description: (§2) Softagar Assay. Soft agar assays were performed in triplicate in 6-well plates. For each well, a bottom layer containing 1% agar in growth medium was added. Then 10,000 cells were plated in 0.5% agar in growth medium. Growth medium was added to each well and changed every 3 days. The colonies were counted after 3-4 weeks.

AML-RAS xenografts = experiment: AML-RAS cell xenograft model; type: in vivo, nude mice; details: LiCl 340 mg/kg intraperitoneal every two days, 28 days
Description: (§3) Xenograft. 10^6 AML-RAS cells were resuspended in PBS and inoculated subcutaneously into both flanks of 6-week old female nude mice (Charles River Laboratory). Seven days after transplantation, animals were treated with intraperitoneal injections of LiCl (340 mg/kg body weight), or an equal volume of vehicle (PBS) every two days. Tumor volume (mm3) and body weight (g) were measured every 2 days. The tumor volume was estimated by using caliper measurements based on formula W^2×L/2 (L is the length of the tumor, W is the width of the tumor). All experiments were approved by and conducted in compliance with the Yale Animal Resources Center and the Institutional Animal Care and Use Committee under protocol number 2008-10230.
as §3, with “estimated” for “estimated by”, “All experiments were approved by and conducted in compliance with the Yale Animal Resources Center and the Institutional Animal Care and Use Committee under protocol number 2008-10230.” left out

H1792 cells = experiment: Soft agar assay on H1792 cells; type: cell-based, human; details: 20 mM LiCl
Description: as §2

A549 cells = experiment: Soft agar assay on A549 cells; type: cell-based, human; details: 20 mM LiCl
Description: as §2

Compound | growth of the AML-RAS cells (viable cells) (AML-RAS cells [1]) | growth of patient-derived cancer cells harboring oncogenic KRAS, NRAS or HRAS mutations [2] | growth of A549 lung cancer cells (A549 lung cancer cells) | anchorage-independent growth of the AML-RAS cells in soft agar (AML-RAS cells [3]) | tumor growth in AML-RAS xenografts (AML-RAS xenografts; nude mice) | health of the recipient mice (body weight) (AML-RAS xenografts; tumor-suppressing dose) | anchorage-independent growth of the H1792 cells in soft agar (H1792 cells) | anchorage-independent growth of the A549 cells in soft agar (A549 cells)
O=C1Nc2cc(Br)ccc2/C1=C1/Nc2ccccc2/C1=N\O [BIO, 6-bromoindirubin-30-oxime] | specifically inhibited the growth | suppresses the growth | not significantly suppressed | – | – | – | – | –
O=C1Cc2c([nH]c3ccc(Br)cc23)-c2ccccc2N1 [Kenpaullone] | specifically inhibited the growth | suppresses the growth | not significantly suppressed | – | – | – | – | –
[Cl-].[Li+] [LiCl, lithium chloride] | specifically impaired the growth | suppresses the growth | not significantly suppressed | prevented; also recorded: dramatically suppressed | dramatically suppressed | not affected | completely inhibited; also recorded: dramatically inhibited | failed to suppress
